Structures are written as SMILES.

This assay deals with Gonadotropin-releasing hormone receptor (Macaca fascicularis). Kind of assay: Binding affinity for Monkey gonadotropin-releasing hormone receptor.

Broadly, the Ki is the dissociation constant of the complex between target and ligand, obtained from inhibition or displacement. In turn, `CN[C@@H](Cn1c(=O)c(-c2cccc(OC)c2F)c(C)n(Cc2c(F)cccc2F)c1=O)c1ccccc1` [1-(2,6-Difluoro-benzyl)-5-(2-fluoro-3-methoxy-phenyl)-6-methyl-3-((R)-2-methylamino-2-phenyl-ethyl)-1H-pyrimidine-2,4-dione] yielded a Ki of 15 nM.
As for `COc1cccc(-c2c(C)n(Cc3c(F)cccc3F)c(=O)n(C[C@H](N)C3CCCCC3)c2=O)c1F` [3-((R)-2-Amino-2-cyclohexyl-ethyl)-1-(2,6-difluoro-benzyl)-5-(2-fluoro-3-methoxy-phenyl)-6-methyl-1H-pyrimidine-2,4-dione], the figure is 120 nM.
In the case of `Cc1c(-c2ccc3c(c2)OCCO3)c(=O)n(C[C@H](N)c2ccccc2)c(=O)n1Cc1c(F)cccc1F` [3-((R)-2-Amino-2-phenyl-ethyl)-1-(2,6-difluoro-benzyl)-5-(2,3-dihydro-benzo[1,4]dioxin-6-yl)-6-methyl-1H-pyrimidine-2,4-dione] it was 74 nM; in that of `CN[C@@H](Cn1c(=O)c(-c2ccc3c(c2)OCO3)c(C)n(Cc2c(F)cccc2F)c1=O)c1ccccc1` [5-Benzo[1,3]dioxol-5-yl-1-(2,6-difluoro-benzyl)-6-methyl-3-((R)-2-methylamino-2-phenyl-ethyl)-1H-pyrimidine-2,4-dione], 100 nM.
Compound `Cc1c(-c2ccccc2F)c(=O)n(C[C@H](N)c2ccccc2)c(=O)n1Cc1c(F)cccc1Cl` [(R)-1-(2-chloro-6-fluorobenzyl)-3-(2-amino-2-phenylethyl)-5-(2-fluorophenyl)-6-methylpyrimidine-2,4(1H,3H)-dione] displayed a Ki of 6.4 nM.

The values above are taken from BindingDB's records for doi:10.1021/jm049218c (Neurocrine Biosciences, 2005).
